Here are results for 26 compounds from patent US10239843B2 (CANCER RESEARCH TECHNOLOGY LIMITED, priority 2014, dated 2019).

The target in one experiment is Human Full Length PARG (Homo sapiens (Human), UniProt Q86W56). The experiment is described as follows: PARG enzyme assay (TR-FRET). The class given is biochemical. The settings on record: read-out: PARG Biochem IC50.
A further experiment relates to PARG in HeLa cell line. Put plainly: PARG cell assay (PAR chain immunofluorescence after MMS). The class given is cell-based. The following applies: HeLa cells, MMS treatment, read-out: PARG Cell IC50. In outline:
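HeLa cells were dosed with compound for 1 h, then given MMS at 50 μg/mL final for a further hour. Cells were methanol-fixed, permeabilised and stained overnight at 4° C with anti-PAR monoclonal antibody. Retained nuclear PAR chains, detected by indirect immunofluorescence, indicate PARG inhibition.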

pIC50: −log10 of the molar value. Where two headings read alike, the source gives them in different places.

Sequence of Human Full Length PARG (Q86W56 whole entry): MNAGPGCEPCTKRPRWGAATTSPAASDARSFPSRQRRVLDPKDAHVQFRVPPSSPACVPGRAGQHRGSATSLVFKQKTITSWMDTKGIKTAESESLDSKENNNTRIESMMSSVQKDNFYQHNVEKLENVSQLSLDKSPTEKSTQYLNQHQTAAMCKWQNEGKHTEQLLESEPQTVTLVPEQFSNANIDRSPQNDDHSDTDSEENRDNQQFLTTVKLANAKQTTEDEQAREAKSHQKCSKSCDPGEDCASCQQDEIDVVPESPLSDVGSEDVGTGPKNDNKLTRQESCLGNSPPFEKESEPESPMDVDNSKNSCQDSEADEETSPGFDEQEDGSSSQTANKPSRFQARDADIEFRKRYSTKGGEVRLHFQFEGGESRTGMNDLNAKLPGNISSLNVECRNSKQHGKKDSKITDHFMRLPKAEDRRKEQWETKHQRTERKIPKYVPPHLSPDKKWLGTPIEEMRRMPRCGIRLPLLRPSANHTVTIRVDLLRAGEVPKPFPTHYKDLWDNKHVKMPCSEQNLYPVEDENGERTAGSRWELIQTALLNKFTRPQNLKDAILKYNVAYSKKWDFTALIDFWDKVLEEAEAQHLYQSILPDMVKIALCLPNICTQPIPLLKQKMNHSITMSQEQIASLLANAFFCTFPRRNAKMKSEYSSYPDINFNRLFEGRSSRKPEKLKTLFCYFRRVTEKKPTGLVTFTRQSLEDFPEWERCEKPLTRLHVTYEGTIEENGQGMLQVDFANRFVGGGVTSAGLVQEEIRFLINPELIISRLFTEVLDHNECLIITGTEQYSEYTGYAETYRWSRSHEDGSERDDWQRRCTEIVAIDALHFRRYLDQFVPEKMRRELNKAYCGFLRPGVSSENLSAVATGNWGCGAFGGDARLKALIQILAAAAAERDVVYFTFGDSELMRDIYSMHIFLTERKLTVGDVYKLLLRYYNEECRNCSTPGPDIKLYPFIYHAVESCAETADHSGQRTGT

On to `Cn1cc(Cn2c(=O)c3cc(S(=O)(=O)NC4(CF)CC4)ccc3n(CC3CC3)c2=O)cn1` [Example 417, 1-(Cyclopropylmethyl)-N-[1-(fluoromethyl)cyclopropyl]-3-[(1-methylpyrazol-4-yl)methyl]-2,4-dioxo-quinazoline-6-sulfonamide], for which the figures for the pIC50 at Human Full Length PARG and with PARG in HeLa cell line (Homo sapiens) were 7.40 and 7.38, respectively.
Take `Cc1cncc(Cn2c(=O)c3cc(S(=O)(=O)NC4(C)CC4)ccc3n(C)c2=O)c1` [Example 418, 1-Methyl-N-(1-methylcyclopropyl)-3-[(5-methyl-3-pyridyl)methyl]-2,4-dioxo-quinazoline-6-sulfonamide]: the pIC50 at Human Full Length PARG was 5.64; in the experiment with PARG in HeLa cell line (Homo sapiens) it was 5.68.
For `Cn1cc(Cn2c(=O)c3cc(S(=O)(=O)NC4(CF)CC4)ccc3n(Cc3ccc(F)cc3)c2=O)cn1` [Example 419, N-[1-(Fluoromethyl)cyclopropyl]-1-[(4-fluorophenyl)methyl]-3-[(1-methylpyrazol-4-yl)methyl]-2,4-dioxo-quinazoline-6-sulfonamide], in that order: 6.97 and 6.93.
On to `Cc1cc(Cn2c(=O)c3cc(S(=O)(=O)NC4(C)CC4)ccc3n(CC3(C#N)CC3)c2=O)on1` [Example 420, 1-[(1-Cyanocyclopropyl)methyl]-N-(1-methylcyclopropyl)-3-[(3-methylisoxazol-5-yl)methyl]-2,4-dioxo-quinazoline-6-sulfonamide], for which the pIC50 on Human Full Length PARG was 6.85; in the experiment on PARG in HeLa cell line (Homo sapiens), 6.79.
For `Cc1cc(Cn2c(=O)c3cc(S(=O)(=O)NC4(C)CC4)ccc3n(CC3CCC(=O)CC3)c2=O)on1` [Example 421, N-(1-Methylcyclopropyl)-3-[(3-methylisoxazol-5-yl)methyl]-2,4-dioxo-1-[(4-oxocyclohexyl)methyl]quinazoline-6-sulfonamide], the pIC50 on Human Full Length PARG was 6.71; in the experiment with PARG in HeLa cell line, 6.23.
Turning to `Cn1cc(Cn2c(=O)[nH]c3c(Br)cc(S(=O)(=O)NC4(C)CC4)cc3c2=O)cn1` [Example 422, 8-Bromo-N-(1-methylcyclopropyl)-3-[(1-methylpyrazol-4-yl)methyl]-2,4-dioxo-1H-quinazoline-6-sulfonamide], the pIC50 is 6.29 at Human Full Length PARG and 6.21 in the experiment on PARG in HeLa cell line (Homo sapiens).
Consider `Cc1ccc(Cn2c(=O)c3cc(S(=O)(=O)NC4(C)CC4)ccc3n(C)c2=O)cn1` [Example 423, 1-Methyl-N-(1-methylcyclopropyl)-3-[(6-methyl-3-pyridyl)methyl]-2,4-dioxo-quinazoline-6-sulfonamide], for which the pIC50 at Human Full Length PARG is 5.80; in the experiment on PARG in HeLa cell line (Homo sapiens), 5.87.
Take `Cn1cc(Cn2c(=O)[nH]c3c(C(N)=O)cc(S(=O)(=O)NC4(C)CC4)cc3c2=O)cn1` [Example 424, 6-[(1-Methylcyclopropyl)sulfamoyl]-3-[(1-methylpyrazol-4-yl)methyl]-2,4-dioxo-1H-quinazoline-8-carboxamide]: the pIC50 at Human Full Length PARG was 6.65; with PARG in HeLa cell line (Homo sapiens), 4.89.
Regarding `Cc1cc(Cn2c(=O)c3cc(S(=O)(=O)NC4(C)CC4)ccc3n(CC3CN(C=O)C3)c2=O)on1` [Example 425, 1-[(1-Formylazetidin-3-yl)methyl]-N-(1-methylcyclopropyl)-3-[(3-methylisoxazol-5-yl)methyl]-2,4-dioxo-quinazoline-6-sulfonamide], the pIC50 was 6.67 on Human Full Length PARG and 5.11 in the experiment on PARG in HeLa cell line (Homo sapiens).
Turning to `C#CC1(NS(=O)(=O)c2ccc3c(c2)c(=O)n(Cc2cnn(C)c2)c(=O)n3C)CC1` [Example 427, N-(1-Ethynylcyclopropyl)-1-methyl-3-[(1-methylpyrazol-4-yl)methyl]-2,4-dioxo-quinazoline-6-sulfonamide], the pIC50 on Human Full Length PARG is 5.27; in the experiment on PARG in HeLa cell line (Homo sapiens), 5.90.
As to `CC(=O)NCc1cc(S(=O)(=O)NC2(C)CC2)cc2c(=O)n(Cc3cnn(C)c3)c(=O)[nH]c12` [Example 428, N-[[6-[(1-Methylcyclopropyl)sulfamoyl]-3-[(1-methylpyrazol-4-yl)methyl]-2,4-dioxo-1H-quinazolin-8-yl]methyl]acetamide], the figures for the pIC50 at Human Full Length PARG and with PARG in HeLa cell line (Homo sapiens) were 6.31 and 4.57, respectively.
On to `CN(C)CC#Cc1cc(S(=O)(=O)NC2(C)CC2)cc2c(=O)n(Cc3cnn(C)c3)c(=O)[nH]c12` [Example 429, 8-[3-(Dimethylamino)prop-1-ynyl]-N-(1-methylcyclopropyl)-3-[(1-methylpyrazol-4-yl)methyl]-2,4-dioxo-1H-quinazoline-6-sulfonamide], for which the values for the pIC50 at Human Full Length PARG and with PARG in HeLa cell line (Homo sapiens) were 5.75 and 5.82, respectively.
With `C#CC1(NS(=O)(=O)c2ccc3[nH]c(=O)n(Cc4cnn(C)c4)c(=O)c3c2)CC1` [Example 431, N-(1-Ethynylcyclopropyl)-3-[(1-methylpyrazol-4-yl)methyl]-2,4-dioxo-1H-quinazoline-6-sulfonamide], the pIC50 was 5.43 at Human Full Length PARG and 5.52 in the experiment on PARG in HeLa cell line.
Take `C#CC1(NS(=O)(=O)c2ccc3c(c2)c(=O)n(Cc2cnn(C)c2)c(=O)n3CC2CC2)CC1` [Example 432, 1-(Cyclopropylmethyl)-N-(1-ethynylcyclopropyl)-3-[(1-methylpyrazol-4-yl)methyl]-2,4-dioxo-quinazoline-6-sulfonamide]: the negative-log IC50 (pIC50) on Human Full Length PARG is 6.31; in the experiment on PARG in HeLa cell line, 6.58.
With `Cc1ncc(Cn2c(=O)c3cc(S(=O)(=O)NC4(C)CC4)ccc3n(C)c2=O)cn1` [Example 433, 1-Methyl-N-(1-methylcyclopropyl)-3-[(2-methylpyrimidin-5-yl)methyl]-2,4-dioxo-quinazoline-6-sulfonamide], the figures for the pIC50 at Human Full Length PARG and with PARG in HeLa cell line (Homo sapiens) were 5.48 and 5.95, respectively.
As to `Cn1c(=O)n(Cc2cnn3ccccc23)c(=O)c2cc(S(=O)(=O)NC3(C)CC3)ccc21` [Example 434, 1-Methyl-N-(1-methylcyclopropyl)-2,4-dioxo-3-(pyrazolo[1,5-a]pyridin-3-ylmethyl)quinazoline-6-sulfonamide], the negative-log IC50 (pIC50) is 5.23 at Human Full Length PARG and 6.22 with PARG in HeLa cell line (Homo sapiens).
With `Cn1cc(Cn2c(=O)c3cc(S(=O)(=O)NC4(C)CC4)ccc3n(CC3CC3(F)F)c2=O)cn1` (stereo not shown) [Example 435, 1-[(2,2-Difluorocyclopropyl)methyl]-N-(1-methylcyclopropyl)-3-[(1-methylpyrazol-4-yl)methyl]-2,4-dioxo-quinazoline-6-sulfonamide], the pIC50 on Human Full Length PARG is 6.98; in the experiment on PARG in HeLa cell line (Homo sapiens), 7.34.
For `Cn1cc(Cn2c(=O)c3cc(S(=O)(=O)NC4(C)CC4)ccc3n(CC3CC(F)(F)C3)c2=O)cn1` [Example 436, 1-[(3,3-Difluorocyclobutyl)methyl]-N-(1-methylcyclopropyl)-3-[(1-methylpyrazol-4-yl)methyl]-2,4-dioxo-quinazoline-6-sulfonamide], in that order: 6.93 and 7.15.
For `Cc1cc(Cn2c(=O)n(Cc3cnn(C)c3)c(=O)c3cc(S(=O)(=O)NC4(CF)CC4)ccc32)n(C)n1` [Example 437, 1-[(2,5-Dimethylpyrazol-3-yl)methyl]-N-[1-(fluoromethyl)cyclopropyl]-3-[(1-methylpyrazol-4-yl)methyl]-2,4-dioxo-quinazoline-6-sulfonamide], the pIC50 on Human Full Length PARG is 7.64; in the experiment with PARG in HeLa cell line (Homo sapiens), 6.78.
For the compound `CCn1c(=O)n(Cc2cnn(C)c2)c(=O)c2cc(S(=O)(=O)NC3(CF)CC3)ccc21` [Example 438, 1-Ethyl-N-[1-(fluoromethyl)cyclopropyl]-3-[(1-methylpyrazol-4-yl)methyl]-2,4-dioxo-quinazoline-6-sulfonamide], the pIC50 on Human Full Length PARG is 6.97; in the experiment with PARG in HeLa cell line (Homo sapiens), 7.08.
For the compound `Cn1cc(Cn2c(=O)c3cc(S(=O)(=O)NC4(CF)CC4)ccc3n(CC#N)c2=O)cn1` [Example 439, 1-(Cyanomethyl)-N-[1-(fluoromethyl)cyclopropyl]-3-[(1-methylpyrazol-4-yl)methyl]-2,4-dioxo-quinazoline-6-sulfonamide], the pIC50 at Human Full Length PARG was 6.51; with PARG in HeLa cell line (Homo sapiens), 6.38.
For the compound `C#CCn1c(=O)n(Cc2cnn(C)c2)c(=O)c2cc(S(=O)(=O)NC3(CF)CC3)ccc21` [Example 440, N-[1-(Fluoromethyl)cyclopropyl]-3-[(1-methylpyrazol-4-yl)methyl]-2,4-dioxo-1-prop-2-ynyl-quinazoline-6-sulfonamide], the pIC50 on Human Full Length PARG is 7.17; with PARG in HeLa cell line, 7.30.
As for `Cc1cc(Cn2c(=O)n(Cc3cnn(C)c3)c(=O)c3cc(S(=O)(=O)NC4(CF)CC4)ccc32)on1` [Example 441, N-[1-(Fluoromethyl)cyclopropyl]-1-[(3-methylisoxazol-5-yl)methyl]-3-[(1-methylpyrazol-4-yl)methyl]-2,4-dioxo-quinazoline-6-sulfonamide], the values for the negative-log IC50 (pIC50) on Human Full Length PARG and with PARG in HeLa cell line were 7.62 and 7.13, respectively.
For `Cn1cc(Cn2c(=O)c3cc(S(=O)(=O)NC4(CF)CC4)ccc3n(CC3CCOCC3)c2=O)cn1` [Example 442, N-[1-(Fluoromethyl)cyclopropyl]-3-[(1-methylpyrazol-4-yl)methyl]-2,4-dioxo-1-(tetrahydropyran-4-ylmethyl)quinazoline-6-sulfonamide], the figures for the pIC50 on Human Full Length PARG and with PARG in HeLa cell line (Homo sapiens) were 7.37 and 6.87, respectively.
Regarding `Cn1cc(Cn2c(=O)c3cc(S(=O)(=O)NC4(CF)CC4)ccc3n(CC3CC3(F)F)c2=O)cn1` (stereo not shown) [Example 443, 1-[(2,2-Difluorocyclopropyl)methyl]-N-[1-(fluoromethyl)cyclopropyl]-3-[(1-methylpyrazol-4-yl)methyl]-2,4-dioxo-quinazoline-6-sulfonamide], the pIC50 on Human Full Length PARG was 7.24; in the experiment on PARG in HeLa cell line (Homo sapiens) it was 7.17.
For the compound `Cn1cc(Cn2c(=O)c3cc(S(=O)(=O)NC4(CF)CC4)ccc3n(CC3CC(F)(F)C3)c2=O)cn1` [Example 444, 1-[(3,3-Difluorocyclobutyl)methyl]-N-[1-(fluoromethyl)cyclopropyl]-3-[(1-methylpyrazol-4-yl)methyl]-2,4-dioxo-quinazoline-6-sulfonamide], the pIC50 on Human Full Length PARG is 7.20; in the experiment with PARG in HeLa cell line it was 7.05.
